In patent US20210283098A1, “Methods and Compositions for Treating Pain and Itch” (YISSUM RESEARCH DEVELOPMENT COMPANY OF THE HEBREW …, priority 2018, published 2021):
Like-named read-outs stand apart in the source and are kept apart here.

Columns and labels:
[1] = tested on: male Sprague-Dawley rats; test: Thermal paw withdrawal latency from radiant heat source (Hargreaves) after peri-sciatic injection; format: in vivo, rat
[2] = tested on: male Sprague-Dawley rats; test: Motor function score after peri-sciatic injection; format: in vivo, rat
[3] = molecular target: cannabinoid CB2 receptor (Homo sapiens, UniProt P34972); details: cited from earlier work
[4] = tested on: TRPV1-HEK-293 cells; details: 1% QX-314, 24 hour treatment; Stueber et al., Anesthesiology, 2016; cited from earlier work
[5] = tested on: TRPV1-HEK-293 cells; test: Cell viability by double staining with PI and FITC annexin V; format: cell-based
Experimental: Similar treatment with 1 μg/μl capsaicin lead, after 24 hours, to death of more than 50% of cells. […] Representative of 5 experiments. FIG. 4B is a bar graph summarizing the number of dead TRPV1-HEK-293 cells without any treatment (white), treated with 2% chloroprocaine (grey) or 1 μg/μl capsaicin (black) at the indicated time points.

[6] = molecular target: T1, TRPV1 channels (Homo sapiens, UniProt Q8NER1); test: Calcium imaging (Fura-2) in HEK-293 cells stably expressing hTRPV1; format: cell-based; details: hTRPV1-HEK-293; chloroprocaine 1-5 mM bath applied 120 s; capsaicin short (5 s) focal application
T1 construct: expressed in transfected cells
Experimental: To that end, we performed calcium imaging experiments on HEK-293 cells which stably express TRPV1 and TRPA1 using HEK-293t cells for control. The cells were cultured in standard DMEM with 10% FBS, 100 U/ml penicillin and 100 μg/ml streptomycin and 2 mM Glutamax. 5 μg/ml blasticidin and 0.35% Zeocin were added for stable expression of hTRPV1 and for induction tetracycline 0.1 μg/ml was added to the medium 16 to 24 hours prior to experiments. Cells were cultivated at 37° C. and 5% CO2 and prepared on Poly-D-Lysin coated coverslips and were loaded with Fura-2 AM (stock in DMSO), for 45-60 minutes in a bath solution composed of (in mM): 145 NaCl, 5 KCl, 2 CaCl2, 1 MgCl2, 10 Glucose, 10 HEPES. They were then rinsed for 45-60 minutes for de-esterification of intracellular AM esters. Intracellular [Ca^2+]i was measured fluoroimetrically as ratiometric excitation at 340 nm and 380 nm (ΔF340/380, emission collected at 510 nm) using an inverted microscope (Nikon Eclipse Ti), equipped with an Epi-Fl attachment; perfect focus system (Nikon, Japan) and Exi Aqua monochromator (QImaging). […] A PV-820 Pneumatic PicoPump (WPI) was used for short (5 s) focal applications of capsaicin. Immediately after the puff application, capsaicin was washed out by perfusing with external solution.

[7] = cited from earlier work

T1 sequence (Q8NER1 whole entry): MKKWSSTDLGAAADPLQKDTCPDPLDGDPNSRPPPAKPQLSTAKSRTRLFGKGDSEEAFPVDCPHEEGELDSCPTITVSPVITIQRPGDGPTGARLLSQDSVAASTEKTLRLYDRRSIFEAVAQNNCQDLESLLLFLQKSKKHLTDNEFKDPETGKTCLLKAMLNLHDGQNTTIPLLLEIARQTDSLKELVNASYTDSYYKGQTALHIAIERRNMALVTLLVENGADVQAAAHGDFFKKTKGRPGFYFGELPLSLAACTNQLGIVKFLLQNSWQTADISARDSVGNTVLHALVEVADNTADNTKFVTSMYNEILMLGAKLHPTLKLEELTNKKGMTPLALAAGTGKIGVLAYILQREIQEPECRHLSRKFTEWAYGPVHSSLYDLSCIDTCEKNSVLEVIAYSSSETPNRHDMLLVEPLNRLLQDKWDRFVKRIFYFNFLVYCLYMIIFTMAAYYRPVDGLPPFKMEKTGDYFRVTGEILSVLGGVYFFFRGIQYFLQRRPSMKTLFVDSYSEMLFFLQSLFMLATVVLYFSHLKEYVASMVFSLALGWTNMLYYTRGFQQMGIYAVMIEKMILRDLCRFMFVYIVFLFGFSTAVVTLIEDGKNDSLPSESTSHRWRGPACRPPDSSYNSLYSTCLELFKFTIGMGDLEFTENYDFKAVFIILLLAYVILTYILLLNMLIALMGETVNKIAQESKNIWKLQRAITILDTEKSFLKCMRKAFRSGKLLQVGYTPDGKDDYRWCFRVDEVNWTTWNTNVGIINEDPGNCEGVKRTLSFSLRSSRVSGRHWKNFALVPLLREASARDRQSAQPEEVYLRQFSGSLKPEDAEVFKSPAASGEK
Chain of cannabinoid CB2 receptor (P34972 whole entry): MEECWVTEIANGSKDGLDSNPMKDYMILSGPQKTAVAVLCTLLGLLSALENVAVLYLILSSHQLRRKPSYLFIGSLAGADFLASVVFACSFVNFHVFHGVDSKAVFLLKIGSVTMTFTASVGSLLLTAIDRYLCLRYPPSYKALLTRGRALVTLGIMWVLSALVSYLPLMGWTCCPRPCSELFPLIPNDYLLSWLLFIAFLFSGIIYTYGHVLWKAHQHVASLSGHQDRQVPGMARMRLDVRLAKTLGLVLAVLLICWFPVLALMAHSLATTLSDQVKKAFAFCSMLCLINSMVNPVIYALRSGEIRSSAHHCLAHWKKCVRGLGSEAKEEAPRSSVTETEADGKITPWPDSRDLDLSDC

In the case of C=C(C)[C@@H]1CCC(C)=C[C@H]1c1c(O)cc(CCCCC)cc1O [CBD, 2-[(1R,6R)-6-isopropenyl-3-methylcyclohex-2-en-1-yl]-5-pentylbenzene-1,3-diol], the “effect on pain behavior” value ([1]; Example 6, saline with 1% CBD) is listed as “did not affect pain behavior”, the “effect on response to noxious stimuli and motor abilities” value ([2]; Example 6, 1% CBD alone) is listed as “did not affect either response to noxious stimuli or motor abilities at all” and the “affinity for CB2 receptor” value [3] is listed as “very low affinity”.
In the case of CC[N+](CC)(CC)CC(=O)Nc1c(C)cccc1C [QX-314], the cell death [4] is listed as 55%.
For COc1cc(CNC(=O)CCCC/C=C/C(C)C)ccc1O [capsaicin], the death of cells ([5]; 1 μg/μl capsaicin, 24 hours) was “more than 50%” and the “change in intracellular calcium (Fura-2 fluorescence)” value [6] was “substantial increase in FURA-2 fluorescence”.
With CCN(CC)CCOC(=O)c1ccc(N)cc1Cl [chloroprocaine] the cell death ([5]; 2% chloroprocaine, 24 hours treatment) was “does not cause cell death”, the “differential block” value ([1]; 0.5% chloroprocaine alone, same motor and pain block) was “no differential block” and the “effect on response to noxious heat (PWL normalized to baseline)” value ([1]; Example 2, peri-sciatic, 0.5% chloroprocaine, 1 μg/μl capsaicin, 52° C.) was “does not affect the response to noxious heat”. The “duration of inhibition of response to noxious heat” value ([1]; Example 6, 0.5% chloroprocaine with vehicle for CBD) was “about 30 min”, the “duration of motor block” value ([2]; Example 2, peri-sciatic injection, 0.5% chloroprocaine alone) was 30 min and the “duration of motor block” value ([2]; Example 6, peri-sciatic, 0.5% chloroprocaine with 1% CBD or with vehicle for CBD) was 30 min. The “change in intracellular calcium (Fura-2 fluorescence)” value [6] was “does not induce calcium influx”.
In the case of CCCCNc1ccc(C(=O)OCCN(C)C)cc1 [tetracaine], the pKa [7] is given as 8.2.
